Test results as given in patent US9044437B2, “Method for treating alzheimer's disease using pharmacological chaperones to increase the activity of gangliosidases” (Amicus Therapeutics, Inc., priority 2009, dated 2015).
Like-named read-outs stand apart in the source and are kept apart here.

Columns and labels:
Neu 1 [1] = molecular target: T1, Neu 1 (Homo sapiens, UniProt Q99519); conditions: marked *: Values reported in the literature; cited from earlier work
wild-type β-Hex = molecular target: T2, wild-type β-Hex (Mus musculus, UniProt P20060); assay: Cellular β-Hex levels in N2A mouse neuroblastomas (HexB immunoblot); type: cell-based; conditions: 10 μM, 3 days
T2 construct: increase in endogenous wild-type β-hexosaminidase levels and sAPPα shedding in N2A mouse neuroblastomas; endogenous in cells; host or cells: N2A mouse neuroblastoma cells
T2 sequence (P20060 32-536): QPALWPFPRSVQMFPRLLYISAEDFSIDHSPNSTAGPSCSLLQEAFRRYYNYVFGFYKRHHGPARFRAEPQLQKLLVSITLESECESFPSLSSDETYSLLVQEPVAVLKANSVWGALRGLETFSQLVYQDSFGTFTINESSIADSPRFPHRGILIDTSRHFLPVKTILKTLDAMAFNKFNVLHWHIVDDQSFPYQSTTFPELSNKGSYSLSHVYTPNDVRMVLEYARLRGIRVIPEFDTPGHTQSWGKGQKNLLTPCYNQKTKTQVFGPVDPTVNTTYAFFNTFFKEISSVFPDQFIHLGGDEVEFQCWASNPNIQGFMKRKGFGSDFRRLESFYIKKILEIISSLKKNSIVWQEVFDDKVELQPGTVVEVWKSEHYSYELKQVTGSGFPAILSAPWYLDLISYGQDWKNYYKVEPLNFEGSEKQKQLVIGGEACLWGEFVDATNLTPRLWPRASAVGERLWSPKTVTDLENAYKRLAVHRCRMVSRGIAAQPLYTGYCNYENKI
Experimental: (§1) The data shown in FIG. 4 was generated as follows. N2A mouse neuroblastomas were treated for 3 days either with no compound or with 10 μM AdDNJ, 10 μM NGT or 10 μM DGJ. The cells were scraped, harvested by centrifugation, and the cell pellet was solubilized using RIPA buffer (1% TX100, 0.5% Taurodeoxycholate, and 0.1% SDS in TBS plus protease inhibitors). The cell lysate was immunoblotted using a rabbit polyclonal antibody specific for HexB (Abcam). The levels of sAPPα were determined by immunoblotting a small fraction (30 μl) of the growth media using 22C11 antibody (Millipore).
(§2) FIG. 4A) Treatment of N2A mouse neuroblastomas with 10 μM NGT and AdDNJ increased cellular levels of wild-type β-Hex while deoxygalactonojirimycin (DGJ), a pharmacological chaperone for the lysosomal enzyme acid α-galactosidase, had no effect on β-Hex levels.

[2] = molecular target: B-Hex (β-hexosaminidase, Hex A/B); assay: Comparative selectivity of pharmacological chaperones: B-Hex inhibition; type: biochemical; conditions: marked **: Values reported as Ki's; read-out: IC50 B-Hex, values reported as Ki's
sAPPα [3] = assay: sAPPα shedding by N2A mouse neuroblastomas (22C11 immunoblot of media); type: cell-based; conditions: 10 μM, 3 days
Experimental: as §1, §2

Neu 3 = molecular target: T3, Neu 3 (Homo sapiens, UniProt Q9UQ49); conditions: marked *: Values reported in the literature; cited from earlier work
T3 sequence (Q9UQ49 1-428): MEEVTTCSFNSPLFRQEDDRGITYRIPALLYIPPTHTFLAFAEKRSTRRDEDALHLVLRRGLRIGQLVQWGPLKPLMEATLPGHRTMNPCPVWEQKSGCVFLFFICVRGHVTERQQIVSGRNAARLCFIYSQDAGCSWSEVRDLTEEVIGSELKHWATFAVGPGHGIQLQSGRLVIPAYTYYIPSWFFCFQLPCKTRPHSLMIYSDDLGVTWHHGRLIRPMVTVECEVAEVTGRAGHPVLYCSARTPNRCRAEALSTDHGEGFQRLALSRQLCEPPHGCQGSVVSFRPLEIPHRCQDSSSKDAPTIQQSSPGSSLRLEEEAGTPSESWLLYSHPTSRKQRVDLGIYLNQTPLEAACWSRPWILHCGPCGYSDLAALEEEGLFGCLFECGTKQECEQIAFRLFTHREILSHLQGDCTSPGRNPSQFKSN

[4] = molecular target: T4, wild-type endogenous neuraminidase 1 (Homo sapiens, UniProt Q99519); assay: Neuraminidase 1 levels in fibroblasts derived from healthy individuals; type: cell-based; conditions: 5 days
T4 construct: selectively increases wild-type endogenous neuraminidase-1 levels in fibroblasts; endogenous in cells; host or cells: healthy control fibroblasts
Experimental: The data shown in FIG. 7 was generated as follows. Healthy control fibroblasts were treated for 5 days either with NB-DANA or IFG. The cells were scraped, harvested by centrifugation, and the cell pellet was solubilized using RIPA buffer (1% TX100, 0.5% Taurodeoxycholate, and 0.1% SDS in TBS plus protease inhibitors). The cell lysate was immunoblotted using a polyclonal antibody specific for Neu1 (Novus).
(A) The pharmacological chaperone NB-DANA increased wild-type endogenous neuraminidase 1 levels by up to 2 fold. […] Fibroblasts derived from healthy individuals were treated with NB-DANA or IFG for 5 days and enzyme activity was measured in cell lysates using the substrate NANA-4-MU. Enzyme activity was expressed as nmol of 4-MU generated per mg protein per hour.

sAPPα [5] = assay: sAPPα production by fibroblasts treated with NB-DGJ (6E10 immunoblot); type: cell-based, human; conditions: Sandhoff fibroblasts, 5 days treatment
Experimental: The data shown in FIG. 3 was generated as follows. A wild type(healthy) fibroblast cell line (CRL2076; Coriell) and a fibroblast cell line from a Sandhoff patient (GM11707; Coriell) were cultured overnight in DMEM (plus 10% FBS) growth medium, followed by an overnight incubation in serum free media. Secreted proteins were collected by TCA precipitation (12.5%) of the growth media and analyzed by immunoblotting using 6E10 antibody (Covance) to determine the levels of sAPPα. […] To measure levels of secreted Aβ40 in media, fibroblasts (CRL2076 & GM11707) were cultured overnight in DMEM (plus 10% FBS) growth medium (3 wells/sample; 1 ml media/well), followed by an overnight incubation in serum free media. The 3 wells/sample were combined and mixed with 0.3 ml methanol, 30 μl 10% TFA (Trifluoroacetic acid). The samples were pre-concentrated using a Sepak C18 column (Waters) and then used in an ELISA assay (Covance) to determine the levels of Aβ40. To determine the levels of full length APP, fibroblasts (CRL2076 & GM11707) were cultured overnight in DMEM (plus 10% FBS) growth medium. […] Secreted proteins were collected by TCA precipitation (12.5%) of the growth media and analyzed by immunoblotting using 6E10 antibody (Covance) to determine the levels of sAPPα. […]

Neu 2 = Neu 2 (Homo sapiens, UniProt Q9Y3R4); conditions: marked *: Values reported in the literature; cited from earlier work
Neu 1 [6] = molecular target: T1, Neu 1; assay: Comparative selectivity: Neu 1 inhibition; type: biochemical
Neu 4 = molecular target: T5, Neu 4 (Homo sapiens, UniProt Q8WWR8); conditions: marked *: Values reported in the literature; cited from earlier work
T5 sequence (Q8WWR8 1-484): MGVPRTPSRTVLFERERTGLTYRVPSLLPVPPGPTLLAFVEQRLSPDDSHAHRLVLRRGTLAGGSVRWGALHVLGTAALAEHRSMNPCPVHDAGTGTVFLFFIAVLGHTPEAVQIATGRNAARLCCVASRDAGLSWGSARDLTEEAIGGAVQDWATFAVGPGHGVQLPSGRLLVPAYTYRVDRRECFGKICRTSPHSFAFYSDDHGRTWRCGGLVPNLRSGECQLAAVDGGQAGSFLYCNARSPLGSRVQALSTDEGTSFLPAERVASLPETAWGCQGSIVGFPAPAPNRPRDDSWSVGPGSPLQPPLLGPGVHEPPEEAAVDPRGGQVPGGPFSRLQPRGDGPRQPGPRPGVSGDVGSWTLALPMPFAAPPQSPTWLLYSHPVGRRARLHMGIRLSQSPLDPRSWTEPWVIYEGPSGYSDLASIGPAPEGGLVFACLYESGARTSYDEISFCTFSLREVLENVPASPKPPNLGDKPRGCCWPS

Chain of Neu 2 (Q9Y3R4 whole entry): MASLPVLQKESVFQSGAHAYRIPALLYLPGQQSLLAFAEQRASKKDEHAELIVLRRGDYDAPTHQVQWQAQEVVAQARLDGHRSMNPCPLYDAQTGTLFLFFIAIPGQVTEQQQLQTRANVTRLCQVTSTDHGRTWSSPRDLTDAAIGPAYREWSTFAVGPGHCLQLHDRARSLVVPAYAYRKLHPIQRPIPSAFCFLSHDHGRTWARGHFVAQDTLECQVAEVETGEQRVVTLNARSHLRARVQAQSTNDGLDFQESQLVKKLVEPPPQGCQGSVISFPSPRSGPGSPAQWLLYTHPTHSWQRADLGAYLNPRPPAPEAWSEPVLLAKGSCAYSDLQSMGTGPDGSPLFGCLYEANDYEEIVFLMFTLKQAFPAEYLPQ

5-(acetylamino)-4-[(aminoiminomethyl)-amino]-2,6-anhydro-3,4,5-trideoxy-D-glycero-D-galacto-non-2-enonic acid [Zanamivir]
IC50 (Neu 1 [1]): 2710 µM

CC(=O)N[C@H]1CN[C@H](CO)[C@@H](O)[C@@H]1O [AdDNJ, 2-acetamido-1,2-dideoxynojirimycin]
cellular levels of wild-type β-Hex (wild-type β-Hex): increased | Ki [2]: 0.7 µM | shedding of neurotrophic sAPPα (sAPPα [3]): increased

CC(=O)N[C@H]1[C@H]([C@H](O)[C@H](O)CO)OC(C(=O)O)=C[C@@H]1O [DANA, 2-deoxy-2,3-dehydro-N-acetylneuraminic acid]
IC50 (Neu 3): 61 µM

OC[C@H]1NC[C@H](O)[C@@H](O)[C@H]1O [DGJ, deoxygalactonojirimycin, reference compound]
cellular levels of wild-type β-Hex (wild-type β-Hex): no effect

OC[C@H]1CNC[C@@H](O)[C@@H]1O [IFG, isofagomine, reference compound]
effect on wild-type neuraminidase 1 levels [4]: does not increase

CCCCN1C[C@H](O)[C@@H](O)[C@@H](O)[C@H]1CO [N-butyl-deoxygalactonojirimycin]
increase in production of sAPPα (sAPPα [5]): 35-40%

CCCCOC(=O)C1=C[C@H](O)[C@@H](NC(C)=O)[C@H]([C@H](O)[C@H](O)CO)O1 [NB-DANA, n-butyl-2-deoxy-2,3-dehydro-N-acetylneuraminic acid]
increase of wild-type endogenous neuraminidase 1 levels [4]: up to 2 fold | IC50 (Neu 3): > 1000 µM | IC50 (Neu 2): > 1000 µM | IC50 (Neu 1 [6]): 10 µM | IC50 (Neu 4): > 1000 µM

CC(=O)N[C@H]1[C@H]([C@H](O)[C@H](O)CO)OC(C(=O)Oc2ccccc2)=C[C@@H]1O [Phenyl DANA, Phenyl 2-deoxy-2,3-dehydro-N-acetylneuraminic acid, reference compound]
IC50 (Neu 3): 320 µM | IC50 (Neu 1 [1]): 13 µM | IC50 (Neu 2): 865 µM | IC50 (Neu 4): 810 µM
